We go through 14 molecules from US7456192B2, “3β-amino azabicyclooctane heteroaromatic amid derivatives preparation method and therapeutic uses thereof” (Pierre Fabre Medicament, priority 2001, dated 2008).

A word on the ED50: it is the dose at which the effect has come halfway, by size or by number of responders. A word on the Ki: it is the equilibrium dissociation constant of an inhibitor or competing ligand from its target. High values mean lower affinity, low ones higher affinity.

Data set [1] relates to methylphenidate-induced behavior. Kind of data set: Antagonism of methylphenidate-induced behavior in rats (chewing inhibition, normalization). In kind it is in vivo, rat. How it is done:
The compounds were tested in vivo (Table II) to measure their ability to antagonize methylphenidate-induced behavior in rats. […] Colpaert J. Pharmacol. Exp. Ther. 267, 181 (1993). This test characterizes the antipsychotic activity in a more in-depth manner than apomorphine effect antagonism, the test conventionally used.

For data set [2], the target named is T1, D2 type central dopaminergic receptor (Homo sapiens, UniProt P14416). The data set can be described thus: biochemical.
Data set [3] can be described thus: Cataleptic activity in rats, compound alone without methylphenidate. Particulars: rat, in vivo.
In data set [4] the target is T1, D2 type central dopaminergic receptor. The conditions noted are these: radioligand 3H-YM-09151-2.
Data set [5] has as its system catalepsy. Kind of data set: Cataleptic activity in rats, compound alone without methylphenidate. Particulars: rat, i.p.; 3 or 5 animals.
Where [6] appears, read: Rattus norvegicus, ip, read-out: Chewing inhibition ED50.
[7] abbreviates: Rattus norvegicus, ip, read-out: Normalization ED50.
Where [8] appears, read: Rattus norvegicus, po, read-out: Chewing inhibition ED50.
Where [9] appears, read: Rattus norvegicus, po, read-out: Normalization ED50.
The mark [10] stands for this setting: ip, rat, i.p., 3 or 5 animals, read-out: Chewing inhibition ED50.
Where [11] appears, read: ip, rat, i.p., 3 or 5 animals, read-out: Normalization ED50.

Structures are written as SMILES. Counter-ions that a name gives are not always drawn. Like-named read-outs stand apart in the source and are kept apart here. Marks after values point to notes of the source that are not given here.

T1 sequence (P14416 whole entry): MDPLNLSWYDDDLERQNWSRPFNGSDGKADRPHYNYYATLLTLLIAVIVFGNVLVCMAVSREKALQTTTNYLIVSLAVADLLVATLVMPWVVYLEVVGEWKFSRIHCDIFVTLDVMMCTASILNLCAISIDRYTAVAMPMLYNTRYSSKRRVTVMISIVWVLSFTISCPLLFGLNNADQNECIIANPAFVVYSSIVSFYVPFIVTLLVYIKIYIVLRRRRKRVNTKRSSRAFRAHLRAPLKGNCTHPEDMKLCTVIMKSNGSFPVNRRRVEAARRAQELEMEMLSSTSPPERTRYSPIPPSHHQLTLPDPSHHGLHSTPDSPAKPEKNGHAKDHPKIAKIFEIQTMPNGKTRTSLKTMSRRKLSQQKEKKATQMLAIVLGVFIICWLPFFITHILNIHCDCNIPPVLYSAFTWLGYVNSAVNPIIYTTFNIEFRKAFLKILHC

Regarding `CSc1c(C(=O)N[C@@H]2C[C@H]3CC[C@@H](C2)N3Cc2ccccc2)sc2ncccc12` [Example 2, 3-Methylsulfanylthieno[2,3-b]pyridine-2-carboxylic acid (8-benzyl-8-azabicyclo[3.2.1]oct-3β-yl)amide hydrochloride], the figures for the ED50 in data set [1] (setting [6]), in data set [1] (setting [7]) and in data set [3] (ip) were 0.08 mg/kg, 0.56 mg/kg and 1.8 mg/kg, respectively. In addition, the Ki in data set [2] was 0.447 nM.

Consider `COc1c(C(=O)N[C@@H]2C[C@H]3CC[C@@H](C2)N3Cc2ccccc2)oc2cccnc12` [Example 4, 3-Methoxyfuro[3,2-b]pyridine-2-carboxylic acid (8-benzyl-8-azabicyclo[3.2.1]oct-3β-yl)amide dihydrochloride], for which the ED50 was 0.12 mg/kg in data set [1] (setting [6]), 0.98 mg/kg in data set [1] (setting [7]) and above 40 mg/kg in data set [3] (ip). This molecule gave an inhibition constant Ki in data set [2] of 2.04 nM.

Regarding `COc1c(C(=O)N[C@@H]2C[C@H]3CC[C@@H](C2)N3Cc2ccc(Cl)cc2)sc2ncccc12` [Example 8, 3-Methoxythieno[2,3-b]pyridine-2-carboxylic acid [8-(4-chlorobenzyl)-8-azabicyclo[3.2.1]oct-3β-yl]amide hydrochloride], the ED50 in data set [1] (setting [6]) was 0.1 mg/kg; in data set [1] (setting [7]) it was 1.3 mg/kg; in data set [3] (ip), above 40 mg/kg. In data set [2], the Ki was 1.74 nM.

Consider `COc1c(C(=O)N[C@@H]2C[C@H]3CC[C@@H](C2)N3CC2CCCCC2)sc2ncccc12` [Example 10, 3-Methoxythieno[2,3-b]pyridine-2-carboxylic acid [8-cyclohexylmethyl-8-azabicyclo[3.2.1]oct-3β-yl]amide fumarate], for which the ED50 is 1.25 mg/kg in data set [1] (setting [6]), 5 mg/kg in data set [1] (setting [7]) and above 40 mg/kg in data set [3] (ip). In addition, the affinity in data set [2] corresponds to a Ki of 2.57 nM.

Regarding `COc1c(C(=O)N[C@@H]2C[C@H]3CC[C@@H](C2)N3Cc2ccc(F)cc2)sc2ncccc12` [Example 11, 3-Methoxythieno[2,3-b]pyridine-2-carboxylic acid [(8-(4-fluorobenzyl)-8-azabicyclo[3.2.1]oct-3β-yl)]amide hydrochloride], the ED50 is 0.08 mg/kg in data set [1] (setting [6]), 0.31 mg/kg in data set [1] (setting [7]) and above 40 mg/kg in data set [3] (ip). The Ki in data set [2] is 0.776 nM.

As for `COc1c(C(=O)N[C@@H]2C[C@H]3CC[C@@H](C2)N3Cc2ccsc2)sc2ncccc12` [Example 12, 3-Methoxythieno[2,3-b]pyridine-2-carboxylic acid [8-thiophen-3-ylmethyl-8-azabicyclo[3.2.1]oct-3β-yl]amide hydrochloride], the results for the ED50 in data set [1] (setting [6]), in data set [1] (setting [7]) and in data set [3] (ip) were 1.25 mg/kg, 1.25 mg/kg and above 40 mg/kg, respectively. The Ki in data set [2] is 2.57 nM.

Take `COc1c(C(=O)N[C@@H]2C[C@H]3CC[C@@H](C2)N3Cc2ccccc2)sc2nccnc12` [Example 27, 3-Methoxythieno[2,3-b]pyrazine-2-carboxylic acid (8-benzyl-8-azabicyclo[3.2.1]oct-3β-yl)amide hydrochloride]: the ED50 in data set [1] (setting [8]) is 0.27 mg/kg; in data set [1] (setting [9]), 0.67 mg/kg; in data set [3] (po) it was 9.5 mg/kg. In data set [2], this molecule had a Ki of 0.437 nM.

For `COc1c(C(=O)N[C@@H]2C[C@H]3CC[C@@H](C2)N3Cc2ccc(F)cc2)sc2nccnc12` [Example 29, 3-Methoxythieno[2,3-b]pyrazine-2-carboxylic acid [8-(4-fluorobenzyl)-8-azabicyclo[3.2.1]oct-3β-yl]amide hydrochloride], the results for the ED50 in data set [1] (setting [8]), in data set [1] (setting [9]) and in data set [3] (po) were 0.08 mg/kg, 0.32 mg/kg and 5 mg/kg, respectively. In data set [2], this molecule showed a Ki of 0.661 nM.

Regarding `CSc1c(C(=O)N[C@@H]2C[C@H]3CC[C@@H](C2)N3Cc2ccc(Cl)cc2)sc2nccnc12` [Example 31, 3-Methylsulfanylthieno[2,3-b]pyrazine-2-carboxylic acid [8-(4-chlorobenzyl)-8-azabicyclo[3.2.1]oct-3β-yl]amide hydrochloride], the ED50 in data set [1] (setting [8]) was found to be 0.31 mg/kg; in data set [1] (setting [9]), 0.31 mg/kg; in data set [3] (po), 1.25 mg/kg. Also, in data set [2], affinity was put at a Ki of 2.04 nM.

Regarding `CSc1c(C(=O)N[C@@H]2C[C@H]3CC[C@@H](C2)N3Cc2ccc(F)cc2)sc2nccnc12` [Example 32, 3-Methylsulfanylthieno[2,3-b]pyrazine-2-carboxylic acid [8-(4-fluorobenzyl)-8-azabicyclo[3.2.1]oct-3β-yl]amide hydrochloride], the ED50 is 0.08 mg/kg in data set [1] (setting [8]), 0.31 mg/kg in data set [1] (setting [9]) and 1.25 mg/kg in data set [3] (po). In addition, the affinity in data set [2], expressed as Ki, was 0.676 nM.

Take `O=C(CCCN1CCC(O)(c2ccc(Cl)cc2)CC1)c1ccc(F)cc1` [Haloperidol, reference compound]: the ED50 was 0.08 mg/kg in data set [1] (setting [10]), 0.32 mg/kg in data set [1] (setting [11]) and 0.32 mg/kg in data set [3] (ip).

As to `Cc1nc2n(c(=O)c1CCN1CCC(c3noc4cc(F)ccc34)CC1)CCCC2` [Risperidone, reference compound], the 50% effective dose (ED50) in data set [1] (setting [6]) turned out to be 0.25 mg/kg; in data set [1] (setting [7]) it was 2.8 mg/kg.

In the case of `CCN1CCCC1CNC(=O)c1cc(S(N)(=O)=O)ccc1OC` (stereo not shown) [Sulpiride, reference compound], the ED50 is above 40 mg/kg in data set [1] (setting [10]), above 40 mg/kg in data set [1] (setting [11]) and above 160 mg/kg in data set [3] (ip).

Take `COc1cccc(C(=O)N[C@@H]2C[C@H]3CC[C@@H](C2)N3Cc2ccccc2)c1OC` [Tropapride, reference compound]: in data set [1] (rat, i.p., 3 or 5 animals), the “Chewing inhibition ED50” value is 0.0059^a mg/kg and the “Normalization ED50” value is recorded as 0.017^a mg/kg. Besides, in data set [4], the “D2 affinity (pKi)” value turned out to be 10.02. Further, the “Catalepsy ED50” value in data set [5] is recorded as 0.015^a mg/kg.
